{"source": "paper PMC10882974", "about": "(Environmental Science & Technology, 2024)", "key": {"[1]": {"test": "toxicokinetics experiment I: elimination after 1 h exposure", "assay_type": "in vivo, Caenorhabditis elegans", "details": "whole organism (worm homogenate)", "protocol": "(§1) In between cycles, the samples were kept on ice. […] Samples were stored at −20 °C until further analysis.\n(§2) All parameters and units are summarized in SI A3."}, "C. elegans [2]": {"system": "C. elegans", "test": "toxicokinetics experiment I: elimination after 1 h exposure", "assay_type": "in vivo, Caenorhabditis elegans", "details": "after 1 h exposure; no E. coli", "protocol": "as §1, §2"}, "[3]": {"test": "toxicokinetics experiment IV: long-term exposure of L4 and adult worms", "details": "whole organism (worm homogenate), iv, 20 mg/L, k2NF elimination rate constant of norfluoxetine, exp IV, with E. coli, 20 mg/L fluoxetine, 48 h", "protocol": "(§3) Three replicates of 1500 pooled C. elegans were used for each time point for each concentration. For experiments with E. coli, the OD600 was kept constant at 0.4.\n(§4) C. elegans containing pellets were resuspended in 500 μL of methanol, and 0.6 g of […] ceramic beads (1.4 mm) were added to the vial. The samples were homogenized three times for 20 s using a Minilys homogenizer (Bertin Technologies) at middle speed. In between cycles, the samples were kept on ice. […] The supernatant was transferred to a glass tube, the pellet (including the ceramic beads) was resuspended in 500 μL of methanol, and the homogenization, sonication, and centrifugation cycle was repeated twice more to result in a three-step extraction. The total combined supernatant was concentrated to dryness under a gentle nitrogen stream and redissolved in 500 μL of methanol to a final concentration of the IS of 1 μM. Samples were stored at −20 °C until further analysis.\n(§5) A one-compartment model was selected since chemical concentrations could only be measured for the whole organism. […] All parameters and units are summarized in SI A3.\n(§6) The kinetic bioconcentration factor[33] was calculated with eq 3, and the ke and kt were only included when applicable to the respective experiment [drawing 4] 3\n(§7) Model fitting was performed by adding the ordinary differential equations to the BYOM modeling package version 6.3 (http://www.debtox.info/byom.html) in Matlab R2022b.[34] […] Optimization was performed with the Melder–Mead Simplex Search method, minimizing the minus log-likelihood. […] Model script deviations from the BYOM model can be found in SI A9."}, "C. elegans [4]": {"system": "C. elegans", "test": "toxicokinetics experiment IV: long-term exposure of L4 and adult worms", "details": "20 mg/L fluoxetine", "protocol": "as §3, §4, §5, §6, §7"}, "[5]": {"test": "toxicokinetics experiment III: effect of E. coli on uptake", "assay_type": "in vivo, Caenorhabditis elegans", "details": "10 mg/L, exp III, 10 mg/L fluoxetine, 10 h, read-out: k2NF elimination rate constant of norfluoxetine (converted)", "protocol": "as §1, §2"}, "C. elegans [6]": {"system": "C. elegans", "test": "toxicokinetics experiment III: effect of E. coli on uptake", "assay_type": "in vivo, Caenorhabditis elegans", "details": "Figure 4B-D (experiments III and IV)", "protocol": "as §1, §2"}, "C. elegans [7]": {"system": "C. elegans", "test": "chemotaxis assay (diacetyl attractant)", "assay_type": "in vivo, Caenorhabditis elegans", "protocol": "(§8) Two quadrants were spiked with 2 μL of an attractant (0.5% diacetyl), and two contained 2 μL water as a control.[30] After 45 min, during which the worms could move freely, the dish was moved to 4 °C to immobilize the worms, and the number of worms in each quadrant was counted. For all data points, the mean and standard deviation were plotted using Graphpad Prism 9.4. The ordinary differential equations and parameters fitted in Matlab were also entered in Graphpad Prism to simulate the internal concentrations over time."}, "C. elegans [8]": {"system": "C. elegans", "test": "norfluoxetine uptake and coexposure with fluoxetine (SI A5)", "assay_type": "in vivo, Caenorhabditis elegans", "details": "same exposure concentration; SI A5, Figure S9", "quoted_text": "Alternatively, there could be a concentration-dependent increase in metabolism over time resulting from enzyme induction. This was modeled with an extra metabolism rate constant ke that was included after 10 h (eq 1a and Figure 4C,D)."}, "C. elegans [9]": {"system": "C. elegans", "test": "general activity test (WMicrotracker)", "assay_type": "in vivo, Caenorhabditis elegans", "protocol": "as §8, with “counted. The general activity was measured with a WMicrotracker from Phylumtech. This system measured the collective movement in multiwell plates by detecting the number of interruptions of an infrared beam over time. The total number of interruptions over a 30 min period was calculated with the Wmicrotracker software. […]” for “counted.”"}, "E. coli OP50": {"system": "E. coli OP50", "test": "uptake and metabolism of fluoxetine in E. coli OP50 and medium", "design": "species or system Escherichia coli", "details": "10 mg/L fluoxetine, E. coli OD600 1.0"}, "C. elegans [10]": {"system": "C. elegans", "test": "calculated excretion rate of norfluoxetine from exposure medium concentrations (experiments III and IV, SI A6)", "assay_type": "in vivo, Caenorhabditis elegans", "description": "Norfluoxetine was also detected in the exposure medium for experiments III and IV and increased over time, indicating the elimination of norfluoxetine. […] However, this does allow for a calculation of the excretion rate of norfluoxetine, as shown in SI A6. […] This could be explained by the saturation of binding sites for norfluoxetine at these higher concentrations, but this still requires further investigation."}, "[11]": {"details": "at 10 mg/L, p < 0.01 Bonferroni post hoc"}}, "data": [{"molecule": "NCCC(Oc1ccc(C(F)(F)F)cc1)c1ccccc1", "note": "(stereo not drawn) [norfluoxetine]", "values": [{"measurement": "k el", "setting": "[1]; 1 h exposure (fluoxetine 0.5, 5, 20 mg/L; norfluoxetine 20 mg/L), then clean medium, no E. coli, read-out: k2sum elimination rate constant (+95% CI) (converted)", "value": 0.000375, "unit": "s⁻¹"}, {"measurement": "k el", "setting": "[1]; 1 h exposure, then clean medium, slow phase after 1 h, no E. coli, read-out: k2slow elimination rate constant (+95% CI) (converted)", "value": "2.36e-05", "unit": "s⁻¹"}, {"measurement": "k el", "setting": "[1]; calculated from k2sum and k2slow, read-out: k2fast elimination rate constant (converted)", "value": 0.000351, "unit": "s⁻¹"}, {"measurement": "elimination over time after transfer to clean medium", "setting": "C. elegans [2]", "value": "still present in small amounts after 24 h"}, {"measurement": "k el", "setting": "[3]", "value": "3.06e-05", "unit": "s⁻¹"}, {"measurement": "norfluoxetine internal concentration relative to fluoxetine at steady state", "setting": "C. elegans [4]; Figure 4D", "value": "around half of the fluoxetine concentrations"}, {"measurement": "norfluoxetine internal concentration at steady state", "setting": "C. elegans [4]; steady state after 10 h", "value": "approximately 80 mg/kgnem"}, {"measurement": "k el", "setting": "[5]; whole organism (homogenate of pooled worms), no E. coli", "value": "2.78e-08", "unit": "s⁻¹"}, {"measurement": "k el", "setting": "[5]; whole organism (worm homogenate), with E. coli, k1, k2FLX, k2NF, kt constrained (eq 1b)", "value": "2.78e-08", "unit": "s⁻¹"}, {"measurement": "k el", "setting": "[5]; whole organism (worm homogenate), with E. coli, no constraint", "value": "3.33e-05", "unit": "s⁻¹"}, {"measurement": "elimination rate (k2NF)", "setting": "C. elegans [6]", "value": "around 0.12 /h"}, {"measurement": "transformation rate kt (norfluoxetine formation)", "setting": "C. elegans [6]", "value": "around 0.06 1/h"}, {"measurement": "chemotaxis index compared to fluoxetine", "setting": "C. elegans [7]; [11]", "value": "significantly lower"}, {"measurement": "EC50", "setting": "C. elegans [7]; nominal concentrations, 72 h exposure from L1, S medium with E. coli OD600 0.4, read-out: EC50 for chemotaxis (+95% confidence intervals)", "value": 14.2, "unit": "µg/mL"}, {"measurement": "internal concentrations of norfluoxetine compared to fluoxetine", "setting": "C. elegans [8]", "value": "around 70%"}, {"measurement": "activity compared to fluoxetine", "setting": "C. elegans [9]; [11]", "value": "significantly lower"}, {"measurement": "EC50", "setting": "C. elegans [9]; nominal concentrations, S medium with E. coli OD600 0.4, 24 h exposure, read-out: EC50 for the effect on activity (+95% confidence intervals)", "value": 10.1, "unit": "µg/mL"}, {"measurement": "norfluoxetine concentrations in medium and bacteria exposed to fluoxetine", "setting": "E. coli OP50", "value": "negligible"}, {"measurement": "calculated excretion rate of norfluoxetine", "setting": "C. elegans [10]; 20 mg/L of fluoxetine exposure", "value": "around 0.5 /h"}, {"measurement": "calculated excretion rate of norfluoxetine, increased value", "setting": "C. elegans [10]; 20 mg/L of fluoxetine exposure, value it increased to", "value": 0.83}, {"measurement": "calculated excretion rate of norfluoxetine", "setting": "C. elegans [10]; 0.5 and 10 mg/L of fluoxetine", "value": "around 0.1 /h"}]}]}
